{"source": "patent US20020137929A1", "about": "“1 - (3-heterocyclylphenyl) isothiourea, -isourea, -guanidine and -amidine herbicidal agents” (Intellectual Property Department, BASF Aktiengesellschaft, priority 1998, published 2002)", "key": {"[1]": {"tested_on": "CYPSE (Flatsedge)", "assay": "Postemergence weed control under flooded paddy conditions", "assay_type": "in vivo, Cyperus serotinus", "settings": "postemergence weeds, rated 3 to 4 weeks after treatment", "summary_of_the_method": "(§1)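 Weeds 3 to 5 cm tall and rice seedlings at the 1.5 to 2.5 leaf stage were flooded, with water held 1.5 to 3 cm above the soil. Compounds in 50/50 v/v aqueous/acetone went into the flood water at about 0.0313 to 0.500 kg/ha. Visual 0-9 ratings versus control were made 3 to 4 weeks later.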"}, "[2]": {"tested_on": "AMBEL (Ragweed, Common)", "assay": "Preemergence herbicidal evaluation", "assay_type": "in vivo, Ambrosia artemisifolia", "settings": "rated 4-5 weeks after treatment", "summary_of_the_method": "(§2)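 Rating at 4–5 wk post-spray on a 0–9 visual scale vs control. Application: aqueous acetone, ~0.0156–0.500 kg/ha, to soil surface after seeding, preemergence.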"}, "[3]": {"tested_on": "CASOB (Sicklepod)", "assay": "Preemergence herbicidal evaluation", "assay_type": "in vivo, Cassia obtusifolia", "settings": "rated 4-5 weeks after treatment", "summary_of_the_method": "as §2"}, "[4]": {"tested_on": "CYPIR (Rice Flatsedge)", "assay": "Postemergence weed control under flooded paddy conditions", "assay_type": "in vivo, Cyperus iria", "settings": "postemergence weeds, rated 3 to 4 weeks after treatment", "summary_of_the_method": "as §1"}, "[5]": {"tested_on": "ZEAMX (Corn, Field)", "assay": "Postemergence herbicidal evaluation", "assay_type": "in vivo, Zea mays", "settings": "postemergence", "summary_of_the_method": "(§3)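 Each compound, dispersed in an acetone/water mix (50/50) carrying 0.5% TWEEN 20, is nozzle-sprayed at 40 psi on approximately two-week-old seedlings at about 0.0156–0.500 kg/ha. Plants are assessed 4–5 weeks afterward on a 0–9 scale relative to control; duplicate tests are averaged.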"}, "[6]": {"tested_on": "ORYSAT (Rice, Tebonnet)", "assay": "Postemergence herbicidal evaluation", "assay_type": "in vivo, Oryza sativa, (L.) Tebonnet", "settings": "postemergence", "summary_of_the_method": "as §3"}, "[7]": {"tested_on": "CHEAL (Lambsquarters, Common)", "assay": "Postemergence herbicidal evaluation", "assay_type": "in vivo, Chenopodium album", "settings": "postemergence", "summary_of_the_method": "as §3"}, "[8]": {"tested_on": "CYPSE (Flatsedge)", "assay": "Preemergence weed control under flooded paddy conditions", "assay_type": "in vivo, Cyperus serotinus", "settings": "rated 3-4 weeks after treatment", "summary_of_the_method": "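Greenhouse paddy assay. Acetone/water (50/50 v/v) solutions dosed into flood water, equivalent to about 0.0313 to 0.500 kg/ha active ingredient, over seeds planted 0.5 cm deep in silt loam. Score: 0-9 visual, based on stand, vigor, malformation, size and chlorosis, 3 to 4 weeks after treatment.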"}, "[9]": {"tested_on": "GALAP (Galium)", "assay": "Preemergence herbicidal evaluation", "assay_type": "in vivo, Galium aparine", "settings": "rated 4-5 weeks after treatment", "summary_of_the_method": "as §2"}, "[10]": {"tested_on": "AMBEL (Ragweed, Common)", "assay": "Postemergence herbicidal evaluation", "assay_type": "in vivo, Ambrosia artemisifolia", "settings": "postemergence", "summary_of_the_method": "as §3"}, "[11]": {"tested_on": "ECHCG (Barnyardgrass)", "assay": "Postemergence herbicidal evaluation", "assay_type": "in vivo, Echinochloa crus-galli", "settings": "postemergence", "summary_of_the_method": "as §3"}, "[12]": {"tested_on": "CHEAL (Lambsquarters, Common)", "assay": "Preemergence herbicidal evaluation", "assay_type": "in vivo, Chenopodium album", "settings": "rated 4-5 weeks after treatment", "summary_of_the_method": "as §2"}, "[13]": {"tested_on": "GLXMAW (Soybean, Williams)", "assay": "Postemergence herbicidal evaluation", "assay_type": "in vivo, Glycine max, (L.) Merr. cv Williams", "settings": "postemergence", "summary_of_the_method": "as §3"}, "[14]": {"tested_on": "ABUTH (Velvetleaf)", "assay": "Postemergence herbicidal evaluation", "assay_type": "in vivo, Abutilon theophrasti", "settings": "postemergence", "summary_of_the_method": "as §3"}}}
{"smiles": "COC(=O)C(Cc1ccc(Cl)cc1)N1C(=O)CSC1=Nc1cc(-n2c(=O)cc(C(F)(F)F)n(C)c2=O)c(F)cc1Cl", "note": "(racemic) [Compound 77, Methyl α-(p-chlorobenzyl)-2-{{2-chloro-5-[3,6-dihydro-3-methyl-2,6-dioxo-4-(trifluoromethyl)-1(2H)-pyrimidinyl]-4-fluorophenyl}imino}-4-oxo-3-thiazolidineacetate, DL-]", "values": [{"measurement": "Herbicidal rating CYPSE", "setting": "[1]; Rate 0.0313 kg/ha", "result": 0.0}, {"measurement": "Herbicidal rating CYPSE", "setting": "[1]; Rate 0.0625 kg/ha", "result": 0.0}, {"measurement": "Herbicidal rating CYPSE", "setting": "[1]; Rate 0.1250 kg/ha", "result": 0.0}, {"measurement": "Herbicidal rating CYPSE", "setting": "[1]; Rate 0.2500 kg/ha", "result": 4.0}, {"measurement": "Preemergence herbicidal rating AMBEL", "setting": "[2]; rate 0.0156 kg/ha", "result": 0.0}, {"measurement": "Preemergence herbicidal rating AMBEL", "setting": "[2]; rate 0.0313 kg/ha", "result": 2.0}, {"measurement": "Preemergence herbicidal rating AMBEL", "setting": "[2]; rate 0.0625 kg/ha", "result": 1.0}, {"measurement": "Preemergence herbicidal rating AMBEL", "setting": "[2]; rate 0.1250 kg/ha", "result": 2.0}, {"measurement": "Preemergence herbicidal rating AMBEL", "setting": "[2]; rate 0.2500 kg/ha", "result": 7.0}, {"measurement": "Preemergence herbicidal rating CASOB", "setting": "[3]; rate 0.0156 kg/ha", "result": 0.0}, {"measurement": "Preemergence herbicidal rating CASOB", "setting": "[3]; rate 0.0313 kg/ha", "result": 0.0}, {"measurement": "Preemergence herbicidal rating CASOB", "setting": "[3]; rate 0.0625 kg/ha", "result": 0.0}, {"measurement": "Preemergence herbicidal rating CASOB", "setting": "[3]; rate 0.1250 kg/ha", "result": 0.0}, {"measurement": "Preemergence herbicidal rating CASOB", "setting": "[3]; rate 0.2500 kg/ha", "result": 0.0}, {"measurement": "Herbicidal rating CYPIR", "setting": "[4]; Rate 0.0313 kg/ha", "result": 0.0}, {"measurement": "Herbicidal rating CYPIR", "setting": "[4]; Rate 0.0625 kg/ha", "result": 0.0}, {"measurement": "Herbicidal rating CYPIR", "setting": "[4]; Rate 0.1250 kg/ha", "result": 0.0}, {"measurement": "Herbicidal rating CYPIR", "setting": "[4]; Rate 0.2500 kg/ha", "result": 0.0}, {"measurement": "ZEAMX herbicidal rating", "setting": "[5]; rate 0.0158 kg/ha", "result": 4.0}, {"measurement": "ZEAMX herbicidal rating", "setting": "[5]; rate 0.0315 kg/ha", "result": 3.5}, {"measurement": "ZEAMX herbicidal rating", "setting": "[5]; rate 0.0630 kg/ha", "result": 4.5}, {"measurement": "ORYSAT herbicidal rating", "setting": "[6]; rate 0.0158 kg/ha", "result": 2.0}, {"measurement": "ORYSAT herbicidal rating", "setting": "[6]; rate 0.0315 kg/ha", "result": 2.0}, {"measurement": "ORYSAT herbicidal rating", "setting": "[6]; rate 0.0630 kg/ha", "result": 3.0}, {"measurement": "CHEAL herbicidal rating", "setting": "[7]; rate 0.0158 kg/ha", "result": 6.0}, {"measurement": "CHEAL herbicidal rating", "setting": "[7]; rate 0.0315 kg/ha", "result": 9.0}, {"measurement": "CHEAL herbicidal rating", "setting": "[7]; rate 0.0630 kg/ha", "result": 9.0}, {"measurement": "CYPSE herbicidal effect rating", "setting": "[8]; 0.0313 kg/ha", "result": 0.0}, {"measurement": "CYPSE herbicidal effect rating", "setting": "[8]; 0.0625 kg/ha", "result": 0.0}, {"measurement": "CYPSE herbicidal effect rating", "setting": "[8]; 0.1250 kg/ha", "result": 0.0}, {"measurement": "CYPSE herbicidal effect rating", "setting": "[8]; 0.2500 kg/ha", "result": 4.0}, {"measurement": "Preemergence herbicidal rating GALAP", "setting": "[9]; rate 0.0156 kg/ha", "result": 0.0}, {"measurement": "Preemergence herbicidal rating GALAP", "setting": "[9]; rate 0.0313 kg/ha", "result": 0.0}, {"measurement": "Preemergence herbicidal rating GALAP", "setting": "[9]; rate 0.0625 kg/ha", "result": 0.0}, {"measurement": "Preemergence herbicidal rating GALAP", "setting": "[9]; rate 0.1250 kg/ha", "result": 1.0}, {"measurement": "Preemergence herbicidal rating GALAP", "setting": "[9]; rate 0.2500 kg/ha", "result": 1.0}, {"measurement": "AMBEL herbicidal rating", "setting": "[10]; rate 0.0158 kg/ha", "result": 9.0}, {"measurement": "AMBEL herbicidal rating", "setting": "[10]; rate 0.0315 kg/ha", "result": 9.0}, {"measurement": "AMBEL herbicidal rating", "setting": "[10]; rate 0.0630 kg/ha", "result": 9.0}, {"measurement": "ECHCG herbicidal rating", "setting": "[11]; rate 0.0158 kg/ha", "result": 1.0}, {"measurement": "ECHCG herbicidal rating", "setting": "[11]; rate 0.0315 kg/ha", "result": 1.0}, {"measurement": "ECHCG herbicidal rating", "setting": "[11]; rate 0.0630 kg/ha", "result": 1.0}, {"measurement": "Preemergence herbicidal rating CHEAL", "setting": "[12]; rate 0.0156 kg/ha", "result": 2.0}, {"measurement": "Preemergence herbicidal rating CHEAL", "setting": "[12]; rate 0.0313 kg/ha", "result": 9.0}, {"measurement": "Preemergence herbicidal rating CHEAL", "setting": "[12]; rate 0.0625 kg/ha", "result": 9.0}, {"measurement": "Preemergence herbicidal rating CHEAL", "setting": "[12]; rate 0.1250 kg/ha", "result": 9.0}, {"measurement": "Preemergence herbicidal rating CHEAL", "setting": "[12]; rate 0.2500 kg/ha", "result": 9.0}, {"measurement": "GLXMAW herbicidal rating", "setting": "[13]; rate 0.0158 kg/ha", "result": 3.5}, {"measurement": "GLXMAW herbicidal rating", "setting": "[13]; rate 0.0315 kg/ha", "result": 5.0}, {"measurement": "GLXMAW herbicidal rating", "setting": "[13]; rate 0.0630 kg/ha", "result": 5.0}, {"measurement": "ABUTH herbicidal rating", "setting": "[14]; rate 0.0158 kg/ha", "result": 9.0}, {"measurement": "ABUTH herbicidal rating", "setting": "[14]; rate 0.0315 kg/ha", "result": 9.0}, {"measurement": "ABUTH herbicidal rating", "setting": "[14]; rate 0.0630 kg/ha", "result": 9.0}]}
